In US10544131B2, “MCL-1 antagonists” (The Regents of the University of California, priority 2014, dated 2020):
Entries after “also recorded” stand apart in the source; their conditions may differ.

How the values were obtained:
Mcl-1/Bak PPI = test: liposome functional assay for Mcl-1/Bak (calcein release, MOMP model); format: biochemical; settings: in words
Description: The Shore lab has developed a functional assay utilizing recombinant proteins anchored in artificial liposomes that enables the evaluation of small-molecules to disrupt the Mcl-1/Bak PPI (FIG. 2A). In this assay, full-length functional single cysteine mutants of Mcl-1 and Bak were anchored into lipids (with PE's) utilizing the engineered cysteine residues as a handle. This allows Applicants to recapitulate Bak-mediated mitochondrial permeabilization and measure the various protein-protein and protein-membrane interactions involved in Mcl-1 regulation of Bak. The release of calcenin (Cn) dye encapsulated in the liposome was used to quantify membrane permeabilization. When the system is untreated, Mcl-1 sequesters Bak by engaging its BH3 domain. Incubation with an active inhibitor neutralizes Mcl-1. This triggers Bak auto-oligomerization resulting in the formation of pores in the lipid membrane and release of Cn. By measuring […] from Cn, Applicants can quantify antagonism of Mcl-1 in real time.
(§1) Synthetic 3, along with numerous intermediates and their derivatives were assayed in a model system for mitochondrial outer membrane permeabilization (MOMP). This liposome based experiment recapitulates a signaling axis involving pro-apoptotic Bak, anti-apoptotic Mcl-1, and an active, truncated 15 kDa subunit of the pro-death protein Bid (tBid).^11 Bak and Mcl-1 are transmembrane proteins constitutively anchored in the mitochondrial outer membrane. tBid translocates to mitochondria upon cleavage of Bid by caspase-8 and stimulates MOMP by directly activating free Bak and by disengaging any activated Bak from Mcl-1. Applicants' assay mimics these events using recombinant, lipidated Mcl-1 and Bak that are constitutively bound to unilamellar liposomes encapsulating calcein dye. tBid addition initiates Bak homo oligomerization and pore formations, which in turn results in calcein release and a fluorescence signal. Mcl-1 counters this tBid dependent activation of Bak, which is overcome by small molecule Mcl-1 antagonists (FIG. 6).

recombinant Mcl-1 = target: T1, recombinant Mcl-1 (Homo sapiens, UniProt Q07820); test: isothermal titration microcalorimetry (ITC) with purified recombinant Mcl-1; format: binding; settings: for binding / affinity for Mcl-1 measurable by ITC: purified recombinant Mcl-1, in words
T1 construct: made in house; host or cells: E. coli

Bcl-xL = Bcl-xL (Homo sapiens, UniProt Q07817); test: liposome assay with Bcl-xL in place of Mcl-1; format: biochemical
Description: (§2) Moreover, when Mcl-1 was replaced with Bcl-xL in the assay, 12 also had no effect (FIG. 10). […] Toxic thrombocytopenia caused by ABT-737 in vivo has been correlated with Bcl-xL inhibition.^25

Bak = test: liposome assay with Bak-loaded proteoliposomes lacking Mcl-1; format: biochemical; settings: Bak loaded proteoliposomes without Mcl-1
Method: as §1
(§3) Recombinant Mcl-1 was expressed and purified from E. coli.
as §2

[1] = system: human KMS-11 myeloid leukemia cells; test: cytotoxicity in cell culture, KMS-11; format: cell-based; settings: KMS-11 cells, single dose, in words
human KMS-11 cells = test: cytotoxicity in cell culture, KMS-11; format: cell-based; settings: 1.0 μM concentration
truncated Bid = test: binding to truncated Bid; settings: data not shown
Description: as §3

[2] = in vivo toxicity (minimum toxic dose)
[3] = stability of the neat substance; format: physicochemical; settings: in words
[4] = system: Ep-myc (myr) Akt lymphoma cells; test: mouse lymphoma model with and without doxorubicin, tumor-free survival; format: in vivo, C57BL/6 mice
Method: C57BL/6 mice were tail-vein injected with Ep-myc (myr) Akt lymphoma cells and palpable tumors (multiple sites per animal) allowed to develop. Animals were randomized for tumor burden and treated by intraperitoneal (IP) injection with vehicle, or vehicle containing obatoclax (10 mg/kg) or JHF3056 (40 mg/kg) daily×5. In addition, animals received a single injection of doxorubicin (IP, 10 mg/kg) on day 2 of the injection regimen, either alone or in combination with the obatoclax (9) or JHF3056 (10) regimen. Animals were allowed to become tumor-free (no observable palpable tumors) and then tumor-free survival was measured (time to re-appearance of tumors).

T1 sequence (Q07820 whole entry): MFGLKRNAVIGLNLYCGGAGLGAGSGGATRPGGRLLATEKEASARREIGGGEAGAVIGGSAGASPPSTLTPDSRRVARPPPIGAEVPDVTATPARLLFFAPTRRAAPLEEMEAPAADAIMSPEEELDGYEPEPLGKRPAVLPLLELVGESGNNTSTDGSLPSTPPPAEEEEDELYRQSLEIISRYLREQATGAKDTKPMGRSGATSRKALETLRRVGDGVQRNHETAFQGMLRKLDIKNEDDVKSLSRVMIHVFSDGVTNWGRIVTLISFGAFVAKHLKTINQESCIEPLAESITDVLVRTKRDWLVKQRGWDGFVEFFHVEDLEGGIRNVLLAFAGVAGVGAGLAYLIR
Chain of Bcl-xL (Q07817 whole entry, species assumed): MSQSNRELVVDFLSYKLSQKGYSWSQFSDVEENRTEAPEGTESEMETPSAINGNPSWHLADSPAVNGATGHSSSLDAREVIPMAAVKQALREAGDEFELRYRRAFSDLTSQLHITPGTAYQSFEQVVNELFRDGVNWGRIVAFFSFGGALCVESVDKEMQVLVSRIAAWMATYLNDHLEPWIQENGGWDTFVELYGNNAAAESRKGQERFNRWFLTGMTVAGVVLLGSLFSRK

| Structure (SMILES) | antagonism of Mcl-1 / Bak-mediated permeabilization of liposomal membranes (Mcl-1/Bak PPI) | Kd (recombinant Mcl-1; purified recombinant Mcl-1) [nM] | binding / affinity for Mcl-1 measurable by ITC (recombinant Mcl-1) | MOMP-like pore formation in liposomes containing Bcl-xL (Bcl-xL) | calcein release from liposomes lacking Mcl-1 (Bak) | cytotoxicity [1] | cytotoxicity ([1]; listed as 10) | cytotoxic activity relative to obatoclax (human KMS-11 cells) | binding to truncated Bid (truncated Bid) | antagonism of Mcl-1 / Bak-mediated permeabilization of liposomal membranes (Mcl-1/Bak PPI; listed as 5) | antagonism of Mcl-1 / Bak-mediated permeabilization of liposomal membranes (Mcl-1/Bak PPI; listed as 10) | binding / affinity for Mcl-1 measurable by ITC (recombinant Mcl-1; listed as 5) | minimum toxic dose ([2]; in vivo) [mg/kg] | toxicity at pharmacologically relevant doses ([2]; in words) | stability [3] | stability ([3]; listed as 5) | anti-tumor activity in combination with doxorubicin ([4]; JHF3056 40 mg/kg IP daily×5, doxorubicin 10 mg/kg IP day 2) | anti-tumor activity in combination with doxorubicin ([4]; JHF3056 40 mg/kg IP daily×5, doxorubicin 10 mg/kg IP day 2, listed as 10) |
| --- | --- | --- | --- | --- | --- | --- | --- | --- | --- | --- | --- | --- | --- | --- | --- | --- | --- | --- |
| COc1cc(-c2c(Cl)ccn2S(=O)(=O)c2ccc(C)cc2)oc1-c1nnn[nH]1 [Compound 12] | stimulate Bak-mediated permeabilization of liposomal membranes; also recorded: successfully drove pore formations; also recorded: exceeded that of 5 and obatoclax | 700 ± 120 | strong, saturable binding | no effect; also recorded: did not stimulate MOMP-like pore formations | did not release calcein dye |  |  |  |  |  |  |  |  |  |  |  |  |  |
| COc1cc(-c2c(Cl)ccn2S(=O)(=O)c2ccc(C)cc2)oc1C(C)=O [JHF3056, 1-(5-(3-chloro-1-tosyl-1H-pyrrol-2-yl)-3-methoxyfuran-2-yl)ethan-1-one] | capacity to antagonize the Mcl-1/Bak PPI; also recorded: directly antagonizes Mcl-1; also recorded: superior performance of JHF3056 (10) relative to 8 and 9 |  |  |  | did not induce release of calcein | cytotoxic at micromolar concentrations; also recorded: sub-micromolar cytotoxicity | sub-micromolar single dose cytotoxicity | enhanced activity relative to obatoclax (9) | no binding | counter Mcl-1 activity and promote Bak-mediated permeabilization of liposomal membranes; also recorded: near equipotent to 4 | promising activity | Neither 2 nor 5 demonstrated measurable affinity | 80 | nontoxic at pharmacologically relevant doses | stable solid | bench stable solid | sensitizes lymphoma tumor xenografts to doxorubicin | clear anti-tumor activity in combination with the chemotherapeutic doxorubicin |
| COc1cc(-c2[nH]ccc2Cl)oc1C1=C2N=C3C=C2[C@H](C(C)C)[C@H]1CCCCCCCC3 [roseophilin, reference compound] | little activity |  |  |  |  |  |  |  |  |  |  |  |  |  |  |  |  |  |
